# Laboratory results reported in patent US7820650B2, “Antifungal 4-substituted 5,6-dihydro-4H-pyrrolo [1,2-a][1,4]benzodiazepines” (Janssen Pharmaceutica NV, priority 2000, dated 2010).
# Key:
# Test in all cases: Determination of fungal susceptibility (MIC, microdilution in CYG medium)
# Assay type in all cases: cell-based
# Candida parapsilosis = conditions: single isolate, 2 days at 37° C., growth (OD 405 nm) inhibited to 35% of control or less
# Experimental: (§1) A panel single isolates of the dermatophytes Sporothrix schenckii; Microsporum canis; Trichophyton rubrum; Trichophyton mentagrophyte; Candida parapsilosis; Cryptococcus neoformans; and Aspergillus fumigatus were used to evaluate the activity of the test compounds in vitro. Inocula were prepared as broth cultures (yeasts) or as suspensions of fungal material made from agar slope cultures (moulds). The test compounds were pipetted from dimethylsulfoxide stock solution into water to provide a series of 10-fold dilutions. The fungal inocula were suspended in the growth medium CYG (F.C. Odds, Journal of Clinical Microbiology, 29, 2735-2740, 1991) at approximately 50,000 colony-forming units (CFU) per ml and added to the aqueous test drugs. The cultures were set up in the 96 wells of plastic microdilution plates and they were incubated for 2 days at 37° C. (Candida spp.) or for 5 days at 30° C. (other fungi). Growth in the microcultures was measured by their optical density (OD) measured at a wavelength of 405 nm. The OD for cultures with test compounds was calculated as a percentage of the OD for control cultures, i.e. the OD for cultures without test compounds. Inhibition of growth to 35% of control or less was recorded as significant inhibition. Minimal inhibitory concentration (MIC; in 10^−6 M) of some of the compounds of formula (I) for the tested species are listed in Table.
# Cryptococcus neoformans = conditions: single isolate, 5 days at 30° C., growth (OD 405 nm) inhibited to 35% of control or less
# Experimental: as §1
# Aspergillus fumigatus = conditions: single isolate, 5 days at 30° C., growth (OD 405 nm) inhibited to 35% of control or less
# Experimental: as §1
# Microsporum canis = conditions: single isolate, 5 days at 30° C., growth (OD 405 nm) inhibited to 35% of control or less
# Experimental: as §1
# [1] = tested on: Trichophyton mentagrophytes; conditions: single isolate, 5 days at 30° C., growth (OD 405 nm) inhibited to 35% of control or less
# Experimental: as §1
# Trichophyton rubrum = conditions: single isolate, 5 days at 30° C., growth (OD 405 nm) inhibited to 35% of control or less
# Experimental: as §1
# Sporothrix schenckii = conditions: single isolate, 5 days at 30° C., growth (OD 405 nm) inhibited to 35% of control or less
# Experimental: as §1
SMILES,"MIC values, Candida parapsilosis (Candida parapsilosis)","MIC values, Cryptococcus neoformans (Cryptococcus neoformans)","MIC values, Aspergillus fumigatus (Aspergillus fumigatus)","MIC values, Microsporum canis (Microsporum canis)","MIC values, Trichophyton mentagrophytes [1]","MIC values, Trichophyton rubrum (Trichophyton rubrum)","MIC values, Sporothrix schenkii (Sporothrix schenckii)"
Br.COc1ccc(C2NCc3c(Cl)cccc3-n3cccc32)cc1 (stereo not drawn) [Comp. 1],>10 10^−6 M,>10 10^−6 M,10 10^−6 M,5.5 10^−6 M,2.1 10^−6 M,2.1 10^−6 M,>10 10^−6 M
Br.CCc1ccc(C2NCc3c(Cl)cccc3-n3cccc32)cc1 (stereo not drawn) [Comp. 2],1 10^−6 M,>10 10^−6 M,3.2 10^−6 M,0.32 10^−6 M,0.32 10^−6 M,0.03 10^−6 M,>10 10^−6 M
Br.FC(F)(F)c1cccc(C2NCc3c(Cl)cccc3-n3cccc32)c1 (stereo not drawn) [Comp. 3],>10 10^−6 M,>10 10^−6 M,10 10^−6 M,2.1 10^−6 M,3.2 10^−6 M,2.1 10^−6 M,>10 10^−6 M
Br.CC(C)c1ccc(C2NCc3ccccc3-n3cccc32)cc1 (stereo not drawn) [Comp. 4],>10 10^−6 M,>10 10^−6 M,>10 10^−6 M,10 10^−6 M,3.2 10^−6 M,3.2 10^−6 M,>10 10^−6 M
Br.Cc1ccc(C2NCc3c(Cl)cccc3-n3cccc32)cc1 (stereo not drawn) [Comp. 5],>10 10^−6 M,>10 10^−6 M,>10 10^−6 M,1 10^−6 M,1 10^−6 M,0.32 10^−6 M,>10 10^−6 M
Br.CC(C)c1ccc(C2NCc3c(Cl)cccc3-n3cccc32)cc1 (stereo not drawn) [Comp. 6],10 10^−6 M,>10 10^−6 M,>10 10^−6 M,0.32 10^−6 M,1 10^−6 M,0.32 10^−6 M,>10 10^−6 M
Br.CC(C)(C)c1ccc(C2NCc3c(Cl)cccc3-n3cccc32)cc1 (stereo not drawn) [Comp. 7],10 10^−6 M,>10 10^−6 M,>10 10^−6 M,0.32 10^−6 M,1 10^−6 M,0.1 10^−6 M,10 10^−6 M
Br.CCCCc1ccc(C2NCc3c(Cl)cccc3-n3cccc32)cc1 (stereo not drawn) [Comp. 8],>10 10^−6 M,>10 10^−6 M,>10 10^−6 M,1 10^−6 M,1 10^−6 M,0.1 10^−6 M,>10 10^−6 M
Br.CCCc1ccc(C2NCc3c(Cl)cccc3-n3cccc32)cc1 (stereo not drawn) [Comp. 9],3.2 10^−6 M,>10 10^−6 M,>10 10^−6 M,0.32 10^−6 M,0.32 10^−6 M,0.1 10^−6 M,>10 10^−6 M
"CCc1ccc(C2c3cccn3-c3cccc(Cl)c3CN2C)cc1 (stereo not drawn) [Comp. 10, 4-(4′-ethylphenyl)-5-methyl-7-chlorobenzo[1,2]-pyrrolo-[1,2a][1,4]diazepine]",>10 10^−6 M,>10 10^−6 M,>10 10^−6 M,>10 10^−6 M,10 10^−6 M,3.2 10^−6 M,>10 10^−6 M
CCc1ccc(C2NCc3cc(Cl)ccc3-n3cccc32)cc1 (stereo not drawn) [Comp. 11],>10 10^−6 M,>10 10^−6 M,>10 10^−6 M,>10 10^−6 M,3.2 10^−6 M,3.2 10^−6 M,>10 10^−6 M
Br.Clc1cccc2c1CNC(c1ccsc1)c1cccn1-2 (stereo not drawn) [Comp. 12],>10 10^−6 M,>10 10^−6 M,>10 10^−6 M,>10 10^−6 M,>10 10^−6 M,3.2 10^−6 M,>10 10^−6 M
Br.CCc1ccc(C2NCc3ccccc3-n3cccc32)cc1 (stereo not drawn) [Comp. 13],>10 10^−6 M,>10 10^−6 M,>10 10^−6 M,>10 10^−6 M,3.2 10^−6 M,1 10^−6 M,>10 10^−6 M
CC(C)c1ccc(C2NCc3c(F)cccc3-n3cccc32)cc1 (stereo not drawn) [Comp. 14],>10 10^−6 M,>10 10^−6 M,>10 10^−6 M,10 10^−6 M,1 10^−6 M,0.32 10^−6 M,>10 10^−6 M
CCc1ccc(C2NCc3c(F)cccc3-n3cccc32)cc1 (stereo not drawn) [Comp. 15],10 10^−6 M,>10 10^−6 M,10 10^−6 M,3.2 10^−6 M,1 10^−6 M,0.32 10^−6 M,>10 10^−6 M
Br.CCc1ccc(C2NCc3ccc(Cl)cc3-n3cccc32)cc1 (stereo not drawn) [Comp. 16],>10 10^−6 M,>10 10^−6 M,>10 10^−6 M,1 10^−6 M,1 10^−6 M,0.1 10^−6 M,>10 10^−6 M
Br.CCOc1ccc(C2NCc3ccc(Cl)cc3-n3cccc32)cc1 (stereo not drawn) [Comp. 17],>10 10^−6 M,>10 10^−6 M,>10 10^−6 M,>10 10^−6 M,10 10^−6 M,10 10^−6 M,>10 10^−6 M
Br.CC(C)c1ccc(C2NCc3ccc(Cl)cc3-n3cccc32)cc1 (stereo not drawn) [Comp. 18],>10 10^−6 M,>10 10^−6 M,>10 10^−6 M,>10 10^−6 M,1 10^−6 M,1 10^−6 M,>10 10^−6 M
